For the series the following is noted: pH 3.

Each structure is given as a SMILES string.

We go through one molecule from patent US6569686B2, “Measurement of solubility-pH profiles” (Pion, Inc., priority 2000, dated 2003).

From the text: Finding suitable candidates for a cosolvent universal buffer solution was problematic, since cosolvents change the pKas of the buffer components, and it is difficult to predict accurately to what extent the pKas would be different.

As for `O=S(=O)(O)CCN1CCN(CCO)CC1` [HEPES, 4-(2-hydroxyethyl)-1-piperazineethanesulfonic acid], the “pKa (I = 0.020M)” value was determined as 7.48.
